The target in one experiment is T1, antigen 85C (Ag85C) (Mycobacterium tuberculosis, UniProt P9WQN9).
T1 construct: gene fbpC
In words: […]-HSQC NMR titration (chemical shift perturbation). In kind it is binding.

For experiment [1], the system named is T2, Mycobacterium smegmatis Msmeg.
T2 construct: DSM 43465
In words: microbe, parasite or virus in culture. On the set-up: species or system Mycobacterium smegmatis DSM 43465; broth microdilution MIC in CAMHB, MTT staining, visual read-out. The following applies: Mycolicibacterium smegmatis; read-out: Msmeg growth inhibition [MIC ug/mL]. How it is done:
The BEI parameter is conceptually very similar to previously published ligand efficiency (LE) parameters that normalize logarithmic affinity by non-hydrogen atom count rather than molecular weight ^5-7. Experimental Section Antibacterial in vitro assay for M. smegmatis. For MIC assays according to the Clinical and Laboratory Standards Institute M. smegmatis (strain DSM 43465) cells were grown in CAMHB medium at 35°C to an OD625nm higher than 0.09 followed by a dilution in medium to reach OD625nm of […] (“0.5 McFarland Standard”). These cell suspensions were brought to approximately 1 * 10^6 CFU/ml which corresponds to a 1:200 dilution. Resulting cell inoculi were diluted 1:1 with medium containing increasing concentrations of test compound as indicated in 96 well plates in duplicates (cell titer and purity of inoculum was checked in parallel by plating out on CAMHB-agar). After 24 – 48 h incubation MTT-solution (5 mg/ml thiaolyl blue tetrazoliumbromide) were added to stain wells with living cells and plates were photographed ^8. Wells with the lowest concentration of compound that were free of the dark brown color of bacteria were considered MICs. Ampicillin was used as a positive control antibiotic. Learning from the rich literature of potent in vitro enzyme inhibitors that were discarded due to the lack of antibacterial activity, we assayed the 31 selected FRIGATE hits for antibacterial activity prior to in vitro follow-up work. We utilized the less pathogenic and faster growing Mtb model organism Msmeg for primary growth inhibition testing.

In brackets after ≈: the same amount, converted by molar mass.

T1 sequence (P9WQN9 46-340): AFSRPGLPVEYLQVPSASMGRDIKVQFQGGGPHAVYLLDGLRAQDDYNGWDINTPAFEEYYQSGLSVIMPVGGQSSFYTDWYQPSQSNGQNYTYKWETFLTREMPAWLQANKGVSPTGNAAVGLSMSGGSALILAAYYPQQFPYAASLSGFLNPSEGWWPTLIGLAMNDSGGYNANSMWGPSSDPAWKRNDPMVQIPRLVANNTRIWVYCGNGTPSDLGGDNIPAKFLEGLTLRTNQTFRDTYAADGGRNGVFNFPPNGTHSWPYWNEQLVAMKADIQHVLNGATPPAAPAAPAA

Turning to `Cc1cccn2c(=O)c3cc(C(=O)NCCCn4ccnc4)n(Cc4ccccc4)c3nc12` [compound 1, N-[3-(1H-imidazol-1-yl)propyl]-1-benzyl-9-methyl-4-oxo-1,4-dihydropyrido[1,2-a]pyrrolo[2,3-d]pyrimidine-2-carboxamide], on antigen 85C (Ag85C), the Kd stood at 177 µM. Besides, the MIC in experiment [1] was under 50 µg/mL.

On to `OC(CNC1CCc2ccccc21)COc1ccc(-c2csnn2)cc1` (stereo not shown) [compound 3, 3], for which the MIC in experiment [1] came out at 100 µg/mL (≈ 272 µM).

Turning to `CC1=C(C#N)c2nc(N)c(C#N)cc2C1=Cc1ccc(-c2ccccc2C(=O)O)o1` [compound 2, 2], the MIC in experiment [1] was over 200 µg/mL.

For orientation: Kd means the equilibrium constant for the complex coming apart.

For the origin of these results see publication PMC3229595, “Discovery of Novel MDR-Mycobacterium tuberculosis Inhibitor by New FRIGATE Computational Screen” (PLoS ONE, 2011).
